The results in this text go back to patent US11458132B2, “Quinolin-2(1H)-one inhibitors of Late SV40 Factor” (TRUSTEES OF BOSTON UNIVERSITY, priority 2020, dated 2022).

For experiment [1], the system named is RhoA/ROCK pathway in FH-B cells. Description: Phospho-MLC2 immunoblot (RhoA/ROCK pathway). Type of experiment: cell-based, human. The conditions noted are these: 1 μM taxol 30 minutes, then 4 μM FQI1 10 minutes. As for the experimental part:
For analysis of phosphorylated MLC2, FH-B cells were treated as indicated in the figure legend, washed with PBS and incubated for 5 minutes in lysis buffer (50 mM Tris-HCl pH 8.0, 50 mM NaF, 5 mM MgCl2, 150 mM NaCl, 1% Triton X-100) supplemented with Tricine Sample Buffer (Bio-rad, 1610739), protease inhibitor cocktail (1:200), phosphatase inhibitor cocktail (1:100), and 1% ([…]. Lysates were incubated at 100° C. for 15 minutes and centrifuged at 21,000×g for 10 minutes prior to SDS-PAGE.
Gel electrophoresis and immunoblotting: Microtubule sedimentation fractions and MLC2 analysis samples were separated by electrophoresis through tris-glycine and tricine polyacrylamide gels, respectively, which were transferred to PVDF membranes. Membranes with microtubule sedimentation fractions and MLC2 analysis samples were blocked in 5% milk in TBST and in 5% BSA in TBST, respectively. After overnight incubation with primary antibody at 4° C., the membranes were washed and incubated with secondary antibody for 1 hour at room temperature. Primary antibodies included anti-α-tubulin (1:2,000, Thermo Fisher Scientific, PA529444), anti-acetylated tubulin (1:1,000, Sigma-Aldrich, T7451), anti-phospho MYL9 (1:200, Thermo Fisher Scientific, PA517727), and anti-β-actin (1:5,000, Sigma-Aldrich, A1978). […] Band intensities were quantified from scanned films by densitometry using ImageJ.
Background: In western blotting, separated proteins are transferred to a membrane and probed.

A further experiment has as its system FH-B cells. Briefly: Microtubule sedimentation assay. Particulars: 4 μM FQI1 (15- and 30-minute pellets); 1 μM nocodazole or taxol 30 minutes. Type of experiment: cell-based, human. As for the experimental part: (§1) Cell lysate preparation: For microtubule sedimentation assays, cells were treated as indicated in the figure legends, washed with PBS and incubated in 250 μl of microtubule sedimentation assay lysis buffer (100 mM PIPES pH 6.8, 2 M glycerol, 2 mM EGTA, 5 mM MgCl2, 0.1% Triton X-100) supplemented with 1 μM taxol, protease inhibitor cocktail (1:200, Abcam, ab201111) and phosphatase inhibitor cocktail (1:100, Abcam, ab201115) for 20 minutes at 37° C. Two hundred μl of scraped lysate was centrifuged at 21,000×g for 10 minutes at room temperature. Supernatants were saved as soluble fractions. Pellets were resuspended in 200 μl RIPA buffer (50 mM Tris HCl pH 8.0, 150 mM NaCl, 1% IGEPAL CA630, 0.05% deoxycholic acid) supplemented with 1.05% SDS, protease inhibitor cocktail (1:200) and phosphatase inhibitor cocktail (1:100) and incubated at 100° C. for 15 minutes. Pellet suspensions were centrifuged as before and supernatants were saved as pellet fractions.
(§2) Gel electrophoresis and immunoblotting: Microtubule sedimentation fractions and MLC2 analysis samples were separated by electrophoresis through tris-glycine and tricine polyacrylamide gels, respectively, which were transferred to PVDF membranes. Membranes with microtubule sedimentation fractions and MLC2 analysis samples were blocked in 5% milk in TBST and in 5% BSA in TBST, respectively. After overnight incubation with primary antibody at 4° C., the membranes were washed and incubated with secondary antibody for 1 hour at room temperature. Primary antibodies included anti-α-tubulin (1:2,000, Thermo Fisher Scientific, PA529444), anti-acetylated tubulin (1:1,000, Sigma-Aldrich, T7451), anti-phospho MYL9 (1:200, Thermo Fisher Scientific, PA517727), and anti-β-actin (1:5,000, Sigma-Aldrich, A1978). Secondary antibodies included Goat anti-Rabbit HRP (Thermo Fisher Scientific, 31460; 1:10,000 for anti-α-tubulin; 1:5,000 for anti-phospho MYL9), and Goat anti-Mouse HRP (Thermo Fisher Scientific, 62-6520; 1:5,000 for anti-acetylated tubulin; 1:10,000-1:20,000 for anti-β-actin). Membranes were placed into Pierce™ ECL Western Blotting Substrate (Thermo Fisher Scientific, 32106). Autoradiography film was exposed to each membrane for various times to ensure acquisition of non-saturated exposures. Band intensities were quantified from scanned films by densitometry using ImageJ.

The subject of a further experiment is RPE cells. Description: Microtubule sedimentation assay. Type of experiment: cell-based. Particulars: 4 μM FQI1 (15- and 30-minute pellets); 1 μM nocodazole or taxol 30 minutes. As for the experimental part:
as §1, §2

Another experiment deals with colorectal cancer tumor. Briefly: Colorectal cancer tumor size and tumor tissue, FIGS. 22-24. Format: in vivo, mouse. The conditions noted are these: treated versus control.

As for `CC(=O)O[C@H]1C(=O)[C@@]2(C)[C@H]([C@H](OC(=O)c3ccccc3)[C@]3(O)C[C@H](OC(=O)[C@H](O)[C@@H](NC(=O)c4ccccc4)c4ccccc4)C(C)=C1C3(C)C)[C@]1(OC(C)=O)CO[C@@H]1C[C@@H]2O` [taxol], in experiment [1], the “FQI1-induced increase in MLC2 phosphorylation after taxol preincubation” value is “abrogated”. In addition, the “microtubule stability and α-tubulin acetylation in the microtubule fraction” value is “stabilizes and hyperacetylates microtubules” with FH-B cells; “stabilizes and hyperacetylates microtubules” in the experiment with RPE cells.

Consider `CC(C)COc1cc(N(C)C)ccc1C1CC(=O)Nc2cc3c(cc21)OCO3` (stereo not shown) [FQI-234, 8-(4-(dimethylamino)-2-isobutoxyphenyl)-7,8-dihydro-[1,3]dioxolo[4,5-g]quinolin-6(5H)-one], for which the “stained tumor tissue, microscope images” value in the experiment with colorectal cancer tumor is “more organized, interstitium and differentiated tumor”.
